Experimental data published in article PMC12567041 (Pharmaceutics, 2025).
pIC50: −log10 of the molar value. “And” between values parts separate entries of the source, which are not always exact repeats. Equal values may be shown once. “Also recorded” adds a separate entry of the source.

What was measured:
[1] = Two-stage dissolution FaSSGF to FaSSIF; format: physicochemical; details: doses up to 200 mg
Experimental: […]. […] In vitro two-stage dissolution experiments, during which the drug/formulation is pre-exposed to fasted-state simulated gastric fluid (FaSSGF) for a 30 min period, at the end of which, properly concentrated fasted-state simulated intestinal fluid (FaSSIF) is immediately added to FaSSGF [13], were performed to assess the risk of precipitation in vitro. […] Considering the high passive permeability, this indicates low risk for compromised absorption in vivo, further supporting the assumption of the complete absorption of asciminib in humans in the fasted state.

[2] = Biopharmaceutics classification; format: physicochemical
[3] = Fraction unbound in microsomal incubation (fumic); format: in vitro ADME; details: for fraction unbound: human, microsomes (microsomal incubation)
CYP3A4/5 = test: Time-dependent inhibition of CYP3A4/5; format: in vitro ADME; details: up to 50 μM; in-house data
[4] = Relative contributions of clearance pathways (fm/fe/ft); design: species or system human
Excerpt: However, as discussed below, the in vivo contribution of UGTs was later adjusted downward to account for BCRP-mediated biliary excretion.
The contributions of CYP enzymes and renal elimination remained unchanged. […] A summary of the Simcyp output for elimination pathways, with and without BCRP, is provided in Supplementary Table S1.

[5] = Clinical DDI studies, asciminib as victim (observed); format: in vivo, human; details: asciminib 200 mg single dose + phenytoin 100 mg TID
[6] = Compartmental concentrations for static DDI risk assessment; design: species or system human
[7] = cited from earlier work
CYP3A4 [8] = system: CYP3A4
[9] = in vitro, mean (SD); cited from earlier work
CYP2J2 [10] = details: Km*fumic; read-out: Km,u (CYP2J2), mean (SD); cited from earlier work
[11] = HLMs; cited from earlier work
[12] = cited from earlier work; remark: listed apart in the source
[13] = 40 mg dose; cited from earlier work
[14] = with strong P-gp inhibitor quinidine; cited from earlier work
[15] = cited from earlier work; remark: listed apart in the source
[16] = cited from earlier work; remark: listed apart in the source
in vitro = details: MDCK
CYP3A4 [17] = test: Enzyme kinetics, recombinant CYP3A4; details: back-calculated, aim for fm = 0.351
Excerpt: (§1) Using the Simcyp retrograde model, initial estimates of intrinsic clearance (CLint,u) were derived based on fractional contributions from recombinant human CYP and UGT enzymes, as well as additional intrinsic clearance in HLMs attributed to hydrolysis. Enzyme kinetic parameters (Km and Vmax) were used to establish the model, with Vmax values back-calculated as the product of CLint,u and Km to match the observed fm values to the total clearance.

CYP2J2 [18] = test: Enzyme kinetics, recombinant CYP2J2; details: back-calculated, aim for fm = 0.0076
Excerpt: as §1

MDCK-LE cell line = test: Apparent passive permeability in MDCK-LE cells; details: from MDCK-LE permeability
[19] = Preclinical volume of distribution across animal species; details: in vivo
Excerpt: Due to the inclusion of hepatic efflux transporters in Simcyp, the whole-body PBPK model was employed. […] However, the passive diffusion clearance (CLPD) in the PerL increases the Vss by moving the drug into the liver. A top-down approach was applied to adjust the Kp scalar to visually best fit the model to the distribution phase of the observed clinical PK data.

UGT1A4 = molecular target: T1, UGT1A4 (Homo sapiens, UniProt P22310); test: Inhibition of recombinant UGT1A4 by imatinib; format: in vitro ADME
T1 sequence (P22310 29-534): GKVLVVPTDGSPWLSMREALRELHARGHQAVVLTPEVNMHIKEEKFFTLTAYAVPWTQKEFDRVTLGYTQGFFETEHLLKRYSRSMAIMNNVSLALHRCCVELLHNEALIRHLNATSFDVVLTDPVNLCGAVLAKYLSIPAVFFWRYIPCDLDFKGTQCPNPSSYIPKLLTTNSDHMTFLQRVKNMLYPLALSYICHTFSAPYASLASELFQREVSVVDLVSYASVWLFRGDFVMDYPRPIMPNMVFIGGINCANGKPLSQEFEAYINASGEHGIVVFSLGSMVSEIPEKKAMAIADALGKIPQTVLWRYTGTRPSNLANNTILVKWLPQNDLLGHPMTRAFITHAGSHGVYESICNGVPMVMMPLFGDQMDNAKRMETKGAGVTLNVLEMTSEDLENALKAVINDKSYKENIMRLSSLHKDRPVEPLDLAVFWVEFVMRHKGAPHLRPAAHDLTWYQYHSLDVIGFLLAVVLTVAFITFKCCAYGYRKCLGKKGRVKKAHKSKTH

[20] = cited from earlier work; remark: listed apart in the source
[21] = In vitro stability study in human feces; format: in vitro ADME; details: after 20 h
[22] = Table S1, sum of hepatic and renal UGT contributions
[23] = assuming no active biliary secretion

SMILES: O=C(Nc1ccc(OC(F)(F)Cl)cc1)c1cnc(N2CC[C@@H](O)C2)c(-c2ccn[nH]2)c1 [asciminib]
- duration of sustained supersaturation [1]: at least 1 h
- precipitation in vitro [1]: < 20%
- biopharmaceutics classification system (BCS) class [2]: class II
- fumic ([3]; 0.810 mg of protein/mL (CYP3A4 incubation)): 0.160
- fumic ([3]; 1.40 mg of protein/mL (CYP2J2 incubation)): 0.0925
- fumic ([3]; 1.5 mg of protein/mL (UGT incubation)): 0.0811
- fumic ([3]; 1.58 mg of protein/mL (CYP2C8 incubation)): 0.0829
- fumic ([3]; 1.86 mg of protein/mL (CYP2D6 incubation)): 0.0680
- fraction unbound ([3]; 0.025 mg/mL of protein): 0.871
- fraction unbound ([3]; 0.05 mg/mL of protein): 0.75
- fraction unbound ([3]; 0.5 mg/mL of protein): 0.208
- time-dependent inhibition (TDI) of CYP3A4/5 (CYP3A4/5): no apparent TDI; also recorded: no in vitro apparent time-dependent inhibition
- CYP2C8: aim for fm/fe/ft, Simcyp output (without BCRP) ([4]; Table S1): 0.007
- CYP2C8: aim for fm/fe/ft, final fm (including hepatic BCRP) ([4]; Table S1): 0.005
- CYP2C8: fm/fe based on hADME ([4]; Table S1): 0.005
- CYP2D6: aim for fm/fe/ft, Simcyp output (without BCRP) ([4]; Table S1): 0.003
- CYP2D6: aim for fm/fe/ft, final fm (including hepatic BCRP) ([4]; Table S1): 0.002
- CYP2D6: fm/fe based on hADME ([4]; Table S1): 0.002
- CYP2J2: aim for fm/fe/ft, Simcyp output (without BCRP) ([4]; Table S1): 0.011
- CYP2J2: aim for fm/fe/ft, final fm (including hepatic BCRP) ([4]; Table S1): 0.0076
- CYP2J2: fm/fe based on hADME ([4]; Table S1): 0.0076
- CYP3A4: aim for fm/fe/ft, Simcyp output (without BCRP) ([4]; Table S1): 0.509
- CYP3A4: aim for fm/fe/ft, final fm (including hepatic BCRP) ([4]; Table S1): 0.351
- CYP3A4: fm/fe based on hADME ([4]; Table S1): 0.351
- Hepatic BCRP: aim for fm/fe/ft, final fm (including hepatic BCRP) ([4]; Table S1): 0.311
- Hydrolysis: aim for fm/fe/ft, Simcyp output (without BCRP) ([4]; Table S1): 0.010
- Hydrolysis: aim for fm/fe/ft, final fm (including hepatic BCRP) ([4]; Table S1): 0.007
- Hydrolysis: fm/fe based on hADME ([4]; Table S1): 0.007
- Renal excretion: aim for fm/fe/ft, Simcyp output (without BCRP) ([4]; Table S1): 0.035
- Renal excretion: aim for fm/fe/ft, final fm (including hepatic BCRP) ([4]; Table S1): 0.044
- Renal excretion: fm/fe based on hADME ([4]; Table S1): 0.044
- UGT1A3: aim for fm/fe/ft, Simcyp output (without BCRP) ([4]; Table S1): 0.048
- UGT1A3: aim for fm/fe/ft, final fm (including hepatic BCRP) ([4]; Table S1): 0.033
- UGT1A3: fm/fe based on hADME ([4]; Table S1): 0.0705
- UGT1A4: aim for fm/fe/ft, Simcyp output (without BCRP) ([4]; Table S1): 0.048
- UGT1A4: aim for fm/fe/ft, final fm (including hepatic BCRP) ([4]; Table S1): 0.033
- UGT2B7: aim for fm/fe/ft, Simcyp output (without BCRP) ([4]; Table S1): 0.190
- UGT2B7: aim for fm/fe/ft, final fm (including hepatic BCRP) ([4]; Table S1): 0.131
- UGT2B17: aim for fm/fe/ft, Simcyp output (without BCRP) ([4]; Table S1): 0.110
- UGT2B17: aim for fm/fe/ft, final fm (including hepatic BCRP) ([4]; Table S1): 0.076
- UGT2B17: fm/fe based on hADME ([4]; Table S1): 0.163
- UGT1A4: fm/fe based on hADME [4, 22]: 0.0705
- UGT2B7: fm/fe based on hADME [4, 22]: 0.279
- revised total UGT contribution to total clearance ([4]; after subtracting BCRP contribution): approximately 27.3%
- CYP-mediated contribution to total clearance [4, 23]: 36.6%
- UGT-mediated contribution to total clearance [4, 23]: 58.3%
- reduction of AUCinf, observed [5]: 34%
- reduction of Cmax, observed [5]: 22%
- Cgut (maximal gut concentration) ([6]; 40 mg BID): 356 µM
- Cgut,ent (maximal enterocyte concentration) ([6]; 40 mg BID): 10.5 µM
- Ch,in,tot (total maximal hepatic inlet plasma concentration) ([6]; 40 mg BID): 4.47 µM
- Ch,in,u (unbound maximal hepatic inlet plasma concentration at the steady state) ([6]; 40 mg BID): 0.121 µM
- Cgut (maximal gut concentration) ([6]; 80 mg QD): 711 µM
- Cgut,ent (maximal enterocyte concentration) ([6]; 80 mg QD): 20.9 µM
- Ch,in,tot (total maximal hepatic inlet plasma concentration) ([6]; 80 mg QD): 9.38 µM
- Ch,in,u (unbound maximal hepatic inlet plasma concentration at the steady state) ([6]; 80 mg QD): 0.253 µM
- Cgut (maximal gut concentration) ([6]; 200 mg BID): 1778 µM
- Cgut,ent (maximal enterocyte concentration) ([6]; 200 mg BID): 52.4 µM
- Ch,in,tot (total maximal hepatic inlet plasma concentration) ([6]; 200 mg BID): 26.1 µM
- Ch,in,u (unbound maximal hepatic inlet plasma concentration at the steady state) ([6]; 200 mg BID): 0.704 µM
- estimated gastrointestinal luminal concentration ([6]; lowest clinical dose 20 mg): ~ 178 μM
- Log P: Octanol–water partition/logD pH 6.8 [7]: 3.9
- Emax (CYP3A4), non-calibrated (CYP3A4 [8]): Non-calibrated Emax = 4.4 In-house data fold
- Indmax (=Emax + 1) (CYP3A4), in vitro measured (CYP3A4 [8]): 5.4 fold
- fup (fraction unbound in plasma) [9]: 0.027 (0.011)
- Km (CYP2J2 [10]): 0.694 µM
- share of metabolism by glucuronidation [11]: ~ 65%
- share of metabolism by oxidative metabolism [11]: ~ 35%
- unchanged asciminib in urine [12]: 4.4 % of the administered radioactive dose
- parent asciminib in feces due to back-conversion of M30.5 ([12]; estimated from late-time-point feces profile): 24%
- CLr (renal clearance) ([12]; healthy): 1.8 mL/min/1.73 m^2
- unchanged asciminib in cumulative feces ([12]; pooled 0–96 h or 0–168 h, average): 56.7 % of the dose
- AUC in cancer patients [13]: 5800 to 6100 ng·h/mL
- decrease of asciminib AUC [14]: 13%
- decrease of asciminib Cmax [14]: 11%
- exposure reduction, high-fat fed [15]: 70%
- exposure reduction, low-fat fed [15]: 33%
- flux in presence of elevated bile acid concentrations (FeSSIF) [16]: reduced asciminib flux
- recovery (in vitro; dog): 88%
- Papp (in vitro; human): 373 ×10⁻⁶ cm/s
- Vmax (CYP3A4) (CYP3A4 [17]): 3.8 pmol/min/pmol of CYP
- Vmax (CYP2J2) (CYP2J2 [18]): 0.355 pmol/min/pmol CYP
- predicted fraction absorbed (fa) (MDCK-LE cell line): 93% and ~ 93%
- Vd [19]: 0.5 to 2.2 L/kg

SMILES: Cc1ccc(NC(=O)c2ccc(CN3CCN(C)CC3)cc2)cc1Nc1nccc(-c2cccnc2)n1 [imatinib]
- pIC50 (UGT1A4): 4.82

SMILES: Cc1nnc(C(=O)NC(C)(C)c2nc(C(=O)NCc3ccc(F)cc3)c(O)c(=O)n2C)o1 [Raltegravir, raltegravir]
- share eliminated by renal clearance ([20]; assumption of the raltegravir model): 9%

SMILES: CN(CCOc1ccc(CC2SC(=O)NC2=O)cc1)c1ccccn1 (centres unmarked) [rosiglitazone]
- fm by CYP2C8 ([20]; probe substrate property): ≈ 0.6
- fm by CYP2C9 ([20]; probe substrate property): ≈ 0.3

SMILES: C[C@H]1[C@H](NC(=O)/C(=N\OC(C)(C)C(=O)O)c2csc(N)n2)C(=O)N1S(=O)(=O)O [aztreonam, reference compound]
- Papp A→B (in vitro; dog): 0.24 ×10⁻⁶ cm/s

SMILES: CCOc1cc(CC(=O)N[C@@H](CC(C)C)c2ccccc2N2CCCCC2)ccc1C(=O)O [Repaglinide, repaglinide]
- fm by CYP2C8 ([20]; probe substrate property): ≈ 0.7
- fm by CYP3A ([20]; probe substrate property): ≈ 0.3

SMILES: CC(C)NCC(O)COc1cccc2ccccc12 (centres unmarked) [propranolol, reference compound]
- Papp A→B (in vitro; dog): 36 ×10⁻⁶ cm/s

SMILES: COc1ccc2[nH]c([S+]([O-])Cc3ncc(C)c(OC)c3C)nc2c1 (centres unmarked) [Omeprazole, omeprazole]
- fm by CYP2C19 ([20]; CYP2C19 normal metabolizers): ≈ 0.9
- fm by CYP3A ([20]; probe substrate property): ≈ 0.1

SMILES: O=C(Nc1ccc(OC(F)(F)Cl)cc1)c1cnc(N2CC[C@@H](O[C@@H]3O[C@H](C(=O)O)[C@@H](O)[C@H](O)[C@H]3O)C2)c(-c2ccn[nH]2)c1 [M30.5]
- stability in human feces [21]: almost completely hydrolyzed back to asciminib
- share of the total AUC ([12]; circulating metabolite): 4.93%
- share of the administered dose ([12]; urinary metabolite): 5.4–8.4%

SMILES: Cn1c(=O)c2c(ncn2C)n(C)c1=O [Caffeine, caffeine]
- fm by CYP1A2 ([20]; probe substrate property): ≈ 0.9
